Tests used:
Assay in all cases: Test E preemergence
foxtail, green = type: in vivo, Setaria viridis; settings: scale 0 to 100
Source text: (§1) Seeds of plant species selected from corn (Zea mays), soybean (Glycine max), lambsquarters (Chenopodium album), poinsettia, wild (wild poinsettia, Euphorbia heterophylla), pigweed, palmer (palmer pigweed, Amaranthus palmeri), waterhemp (common waterhemp, Amaranthus rudis), surinam grass (Brachiaria decumbens), crabgrass, large (large crabgrass, Digitaria sanguinalis), crabgrass, Brazilian (Brazilian crabgrass, Digitaria horizontalis), panicum, fall (fall panicum, Panicum dichotomiflorum), foxtail, giant (giant foxtail, Setaria faberii), foxtail, green (green foxtail, Setaria viridis), goosegrass (Eleusine indica), johnsongrass (Sorghum halepense), ragweed (common ragweed, Ambrosia elatior), barnyardgrass (Echinochloa crus-galli), sandbur (southern sandbur, Cenchrus echinatus), arrowleaf sida (Sida rhombifolia), ryegrass, Italian (Italian ryegrass, Lolium multiflorum), dayflower, VA (Virginia dayflower, Commelina virginica), field bindweed (Convolvulus arvensis), cocklebur (common cocklebur, Xanthium strumarium), morningglory (Ipomoea coccinea), nightshade (eastern black nightshade, Solanum ptycanthum), kochia (Kochia scoparia), nutsedge, yellow (yellow nutsedge, Cyperus esculentus), smartweed (ladysthumb smartweed, Polygonum persicaria), velvetleaf (Abutilon theophrasti), horseweed (Conyza canadensis), and beggarticks (hairy beggarticks, Bidens pilosa), were planted into a silt loam soil and treated preemergence with test chemicals formulated in a non-phytotoxic solvent mixture which included a surfactant.
(§2) At the same time, plants from these crop and weed species and also waterhemp_RES1, (ALS & Triazine resistant common waterhemp, Amaranthus rudis), and waterhemp_RES2, (ALS & HPPD resistant common waterhemp, Amaranthus rudis) were planted in pots containing Sunshine Redi-Earth® planting medium comprising spaghnum peat moss, vermiculite, starter nutrients and dolomitic limestone were treated with postemergence applications of test chemicals formulated in the same manner. Plants ranged in height from 2 to 18 cm for postemergence treatments (1- to 4-leaf stage). Treated plants and controls were maintained in a greenhouse for 14 to 21 d, after which time all species were compared to controls and visually evaluated. Plant response ratings, summarized in Table E, are based on a scale of 0 to 100 where 0 is no effect and 100 is complete control. A dash (-) response means no test result.

goosegrass = type: in vivo, Eleusine indica; settings: scale 0 to 100
Source text: as §1, §2

dayflower, VA = type: in vivo, Commelina virginica; settings: scale 0 to 100
Source text: as §1, §2

morningglory = type: in vivo, Ipomoea coccinea; settings: scale 0 to 100
Source text: as §1, §2

crabgrass, Brazilian = type: in vivo, Digitaria horizontalis; settings: Brazil, scale 0 to 100
Source text: as §1, §2

johnsongrass = type: in vivo, Sorghum halepense; settings: scale 0 to 100
Source text: as §1, §2

panicum, fall = type: in vivo, Panicum dichotomiflorum; settings: scale 0 to 100
Source text: as §1, §2

poinsettia, wild = type: in vivo, Euphorbia heterophylla; settings: scale 0 to 100
Source text: as §1, §2

arrowleaf sida = type: in vivo, Sida rhombifolia; settings: scale 0 to 100
Source text: as §1, §2

pigweed, palmer = type: in vivo, Amaranthus palmeri; settings: scale 0 to 100
Source text: as §1, §2

corn = type: in vivo, Zea mays; settings: scale 0 to 100
Source text: as §1, §2

nightshade = type: in vivo, Solanum ptycanthum; settings: scale 0 to 100
Source text: as §1, §2

crabgrass, large = type: in vivo, Digitaria sanguinalis; settings: scale 0 to 100
Source text: as §1, §2

Measured: Plant response rating

CCCc1nc(-c2ccc(F)cc2)nn1Cc1ccnc(C(F)(F)F)c1 [Compound 6, 4-[[3-(4-fluorophenyl)-5-propyl-1H-1,2,4-triazol-1-yl]methyl]-2-(trifluoromethyl)pyridine]
10: dayflower, VA; 16 g ai/ha | morningglory; 31 g ai/ha | morningglory; 62 g ai/ha | arrowleaf sida; 62 g ai/ha
95: panicum, fall; 125 g ai/ha | poinsettia, wild; 250 g ai/ha
75: goosegrass; 125 g ai/ha | crabgrass, Brazilian; 16 g ai/ha | pigweed, palmer; 31 g ai/ha
30: morningglory; 125 g ai/ha | poinsettia, wild; 31 g ai/ha | arrowleaf sida; 125 g ai/ha | corn; 62 g ai/ha
40: johnsongrass; 31 g ai/ha
50: goosegrass; 31 g ai/ha | goosegrass; 62 g ai/ha | johnsongrass; 62 g ai/ha | poinsettia, wild; 62 g ai/ha | poinsettia, wild; 125 g ai/ha | pigweed, palmer; 16 g ai/ha | corn; 125 g ai/ha
100: foxtail, green; 250 g ai/ha | goosegrass; 250 g ai/ha | crabgrass, Brazilian; 62 g ai/ha | crabgrass, Brazilian; 125 g ai/ha | crabgrass, Brazilian; 250 g ai/ha | johnsongrass; 250 g ai/ha | panicum, fall; 250 g ai/ha | pigweed, palmer; 125 g ai/ha | pigweed, palmer; 250 g ai/ha | nightshade; 125 g ai/ha | nightshade; 250 g ai/ha | crabgrass, large; 125 g ai/ha | crabgrass, large; 250 g ai/ha
0: arrowleaf sida; 16 g ai/ha | arrowleaf sida; 31 g ai/ha | corn; 16 g ai/ha
15: goosegrass; 16 g ai/ha | poinsettia, wild; 16 g ai/ha | corn; 31 g ai/ha | nightshade; 16 g ai/ha
35: panicum, fall; 62 g ai/ha
60: dayflower, VA; 31 g ai/ha | corn; 250 g ai/ha
70: foxtail, green; 62 g ai/ha | dayflower, VA; 62 g ai/ha | arrowleaf sida; 250 g ai/ha | nightshade; 31 g ai/ha
80: foxtail, green; 125 g ai/ha | dayflower, VA; 125 g ai/ha | crabgrass, Brazilian; 31 g ai/ha | johnsongrass; 125 g ai/ha
90: dayflower, VA; 250 g ai/ha | pigweed, palmer; 62 g ai/ha | nightshade; 62 g ai/ha | crabgrass, large; 62 g ai/ha
20: panicum, fall; 31 g ai/ha

Reference: patent US10681909B2, “Herbicidal triazoles” (FMC Corporation, priority 2014, dated 2020)
